The values that follow come from PMC6025150, “Synthesis, enzyme inhibitory kinetics mechanism and computational study of N-(4-methoxyphenethyl)-N-(substituted)-4-methylbenzenesulfonamides as novel therapeutic agents for Alzheimer’s disease” (PeerJ, 2018).

Values joined by “and” are separate entries in the source; they are usually repeats but may differ in a detail not shown here. Equal values may be shown once. “Also recorded” adds a separate entry of the source. Read-outs that look alike come from different tables or passages of the source.

In test [1] the target is T1, acetylcholinesterase (from human erythrocytes) (Homo sapiens, UniProt P22303).
T1 construct: acetylcholinesterase (from human erythrocytes, purchased from Sigma-Aldrich, Seoul, Korea); purchased Sigma-Aldrich, Seoul, Korea; host or cells: human erythrocytes (natural source)
In words: biochemical. On the set-up: LogIC50 (best-fit value): unit not given here. The procedure:
The inhibitory activities of synthesized compounds were determined spectrophotometrically using acetylthiocholine iodide as substrate by following the method of ([Ellman et al., 1961]). Briefly, The assay solution consisted of 180 µL of 50 mM Tris-HCl buffer, pH 7.7, containing (0.1 M sodium chloride and 0.02 M magnesium chloride) and 20 µL of enzyme (AChE, EC 3.1.1.7), acetylcholinesterase (from human erythrocytes, purchased from Sigma-Aldrich, Seoul, Korea) solution (50 U per well); increasing concentrations of test compounds (10 µL) were added to the assay solution and pre incubated for 30 min at 4 °C. After that 5,5′ Dithiobis (2 nitrobenzoic acid) (0.3 mM, 20 µL) and acetylthiocholine iodide (1.8 mM, 20 µL) were added to the reaction mixture and incubated at 37 °C for 10 min, followed by the measurement of absorbance at 412 nm. For non-enzymatic reaction, the assays were carried out with a blank containing all components except acetylcholinesterase. The assay measurements were measured at 412 nm using a micro plate reader (OPTI Max Tunable; Molecular Devices, Sunnyvale, CA, USA) having a wave-length range from 340–850 nm; for 96 well plates. The reaction rates were compared and percent inhibition was calculated due to the presence of tested inhibitors. […] Each concentration was analyzed in three independent experiments run in triplicate. The IC50 values were calculated by nonlinear regression using GraphPad Prism 5.0.
The % of Inhibition of Acetylcholinesterase was calculated as following: Inhibition%=B−S∕B×100. Here, the B and S are the absorbance’s for the blank and samples.

Test [2] deals with T1, acetylcholinesterase (from human erythrocytes). In words: Determination of AChE inhibition kinetics (Lineweaver-Burk and secondary plots). Type of test: biochemical. The procedure:
The reaction mixture consisted of 180 µL of 50 mM Tris-HCl buffer (pH 7.7); 10 µL of 5c at the different concentrations (0.00, 0.075 and 0.15 µM) and 20 µL enzyme AChE (50 U per well). We added 20 µL of DTNB 0.3 mM and 20 µL of ATCI substrate at the different concentrations (4, 2, 1, 0.5, 0.25 and 0.125 mM) and mixed, pre-incubated time was same as acetylcholinesterase assay. We measured the absorbance at 412 nm up to 5 min. Lineweaver-Burk plot of the inverse of velocities vs. the inverse of substrate concentration was used for assessment of the type of inhibition AChE kinetically. […] The results (change in absorbance per sec) were processed by using SoftMaxPro software.

T1 sequence (P22303 32-617 isoform P22303-2 limits assumed): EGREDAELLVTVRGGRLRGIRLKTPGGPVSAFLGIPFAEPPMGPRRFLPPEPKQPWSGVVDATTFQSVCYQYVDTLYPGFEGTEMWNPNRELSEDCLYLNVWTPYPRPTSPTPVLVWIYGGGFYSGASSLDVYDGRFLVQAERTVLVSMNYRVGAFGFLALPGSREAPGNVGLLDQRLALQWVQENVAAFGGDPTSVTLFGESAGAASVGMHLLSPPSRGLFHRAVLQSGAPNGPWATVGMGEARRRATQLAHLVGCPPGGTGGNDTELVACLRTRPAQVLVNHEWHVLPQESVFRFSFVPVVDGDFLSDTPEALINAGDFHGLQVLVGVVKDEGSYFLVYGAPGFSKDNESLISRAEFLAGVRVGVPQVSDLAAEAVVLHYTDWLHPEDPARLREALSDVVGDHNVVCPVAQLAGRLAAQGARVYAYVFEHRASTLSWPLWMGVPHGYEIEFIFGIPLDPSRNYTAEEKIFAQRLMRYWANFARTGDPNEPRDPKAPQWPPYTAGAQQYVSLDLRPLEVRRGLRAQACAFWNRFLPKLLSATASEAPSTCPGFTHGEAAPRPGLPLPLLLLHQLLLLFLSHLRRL

Turning to `COc1ccc(CCN(C(C)C)S(=O)(=O)c2ccc(C)cc2)cc1` [Compound 5c, N-(4-Methoxyphenethyl)-4-methyl-N-(2-propyl)benzensulfonamide], the IC50 in test [1] (each of three independent experiments, Raw Data of IC50 sheet, read-out: IC50, single experiment (converted)) is 0.0424 µM and 0.108 µM; in test [1] (from human erythrocytes, mean ± SEM, read-out: Acetylcholinesterase IC50 ± SEM) it was 0.0751 ± 0.0189 µM; in test [1] (log(inhibitor) vs. response fit, single run, unit inferred, IC50 Raw Data sheet, read-out: IC50 (best-fit value) (converted)) it was 0.075 µM; in test [1] (mean converted to uM, Raw Data of IC50 sheet, read-out: IC50), 0.0751 µM; in test [1] (mean of three experiments, Raw Data of IC50 sheet, read-out: IC50 (Mean) (converted)) it was 0.0751 µM. Moreover, the “LogIC50 (best-fit value)” value in test [1] (log(inhibitor) vs. response fit, single run, IC50 Raw Data sheet) is listed as -1.584. Besides, the type of inhibition entry in test [2] (Lineweaver-Burk plots) is recorded as “competitively; also recorded: competitive”. The “Slope of Lineweaver-Burk line” value was 1360.1 in test [2] (compound 0.075 µM) and 1563.63 in test [2] (compound 0.15 µM). For the same molecule, the “Vmax (1/V)” value in test [2] (compound 0.075 µM, substrate axis value 0.25) is 994.096; in test [2] (compound 0.075 µM, substrate axis value 0.5), 1353.4; in test [2] (compound 0.075 µM, substrate axis value 1), 2004.13; in test [2] (compound 0.075 µM, substrate axis value 2), 3323.6; in test [2] (compound 0.075 µM, substrate axis value 4), 5882.71; in test [2] (compound 0.075 µM, substrate axis value 8), 11587.8. For the same molecule, the “Vmax (1/V)” value in test [2] (compound 0.15 µM, substrate axis value 0.25) turned out to be 1136.29; in test [2] (compound 0.15 µM, substrate axis value 0.5), 1514.8; in test [2] (compound 0.15 µM, substrate axis value 1) it was 2227.02; in test [2] (compound 0.15 µM, substrate axis value 2) it was 3687.56; in test [2] (compound 0.15 µM, substrate axis value 4) it was 6343.71; in test [2] (compound 0.15 µM, substrate axis value 8), 13371.1. The inhibitory constant (Ki) in test [2] (from Dixon / secondary plot of slope vs inhibitor concentration, read-out: inhibition constant Ki (EI dissociation constant)) worked out at 2500 nM.

For orientation: IC50 means the midpoint of a concentration-inhibition curve. The Ki is a measure of affinity in units of concentration, obtained from inhibition or displacement.
